Consider 20 compounds from US10017506B2, “ATX modulating agents” (BIOGEN MA INC., priority 2012, dated 2018).

SMILES strings stand for the structures.

The target of the first experiment is T1, Human ATX protein (Homo sapiens, UniProt Q13822).
T1 construct: made in house
Briefly: ATX biochemical FRET assay with FS-3 substrate. Particulars: FRET substrate FS-3 2 μM, ATX 1.0 μg/mL, 30 minutes pre-incubation, 2 hours at room temperature; read-out: IC50. In short, it runs like this:
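Enzyme at 1.0 μg/mL final, pre-incubated with compound (10-point, 3-fold series) for 30 min at RT in Tris pH 7.4 buffer with NaCl, KCl, CaCl2, MgCl2 and 1 mg/mL fatty-acid-free BSA. After FS-3 addition, 2 h at RT protected from light; fluorescence at 485/538 nm.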
For `O=C(O)CC1CCC(NCc2ccc3ccc(O[C@H]4CC[C@@H](C(F)(F)F)CC4)c(C(F)(F)F)c3c2)CC1` (stereo partly drawn) [Example 126, 2-(4-(((8-(trifluoromethyl)-7-((cis-4-(trifluoromethyl)cyclohexyl)oxy)naphthalen-2-yl)methyl)amino)cyclohexyl)acetic acid], the IC50 was no more than 500 nM.

For the compound `O=C(O)C1CCC(NCc2ccc3ccc(O[C@H]4CC[C@@H](C(F)(F)F)CC4)c(C(F)(F)F)c3c2)C1` (stereo partly drawn) [Example 127, 3-(((8-(trifluoromethyl)-7-((cis-4-(trifluoromethyl)cyclohexyl)oxy)naphthalen-2-yl)methyl)amino)cyclopentanecarboxylic acid], the IC50 was no more than 500 nM.

`CC(N[C@H]1CC[C@@H](C(=O)O)CC1)c1ccc2ccc(O[C@H]3CC[C@@H](C(F)(F)F)CC3)c(C(F)(F)F)c2c1` (stereo partly drawn) [Example 129, cis-4-((1-(8-(trifluoromethyl)-7-((cis-4-(trifluoromethyl)cyclohexyl)oxy)naphthalen-2-yl)ethyl)amino)cyclohexanecarboxylic acid]: the IC50 was no more than 100 nM.

Regarding `CC[C@H]1CC[C@@H](Oc2ccc3ccc(C(C)NC45CCC(C(=O)O)(CC4)C5)cc3c2C(F)(F)F)CC1` (stereo partly drawn) [Example 130, 4-((1-(7-((cis-4-ethylcyclohexyl)oxy)-8-(trifluoromethyl)naphthalen-2-yl)ethyl)amino)bicyclo[2.2.1]heptane-1-carboxylic acid], the IC50 was no more than 250 nM.

Take `CC[C@H]1CC[C@@H](Oc2ccc3ccc(C(C)NC4CCC(C(=O)O)C4)cc3c2C(F)(F)F)CC1` (stereo partly drawn) [Example 131, 3-((1-(7-((cis-4-ethylcyclohexyl)oxy)-8-(trifluoromethyl)naphthalen-2-yl)ethyl)amino)cyclopentanecarboxylic acid]: the IC50 was no more than 100 nM.

For the compound `CC[C@H]1CC[C@@H](Oc2ccc3ccc(C(C)N[C@H]4CC[C@@H](C(=O)O)CC4)cc3c2C(F)(F)F)CC1` (stereo partly drawn) [Example 134, cis-4-((1-(7-((cis-4-ethylcyclohexyl)oxy)-8-(trifluoromethyl)naphthalen-2-yl)ethyl)amino)cyclohexanecarboxylic acid], the 50% inhibitory concentration (IC50) was no more than 100 nM.

For `CC[C@H]1CC[C@@H](Oc2ccc3ccc([C@H](C)N[C@H]4CC[C@@H](C(=O)O)CC4)cc3c2C(F)(F)F)CC1` [Example 135a, cis-4-(((S)-1-(7-((cis-4-ethylcyclohexyl)oxy)-8-(trifluoromethyl)naphthalen-2-yl)ethyl)amino)cyclohexanecarboxylic acid], the 50% inhibitory concentration (IC50) was no more than 100 nM.

In the case of `CC[C@H]1CC[C@@H](Oc2ccc3ccc([C@@H](C)N[C@H]4CC[C@@H](C(=O)O)CC4)cc3c2C(F)(F)F)CC1` [Example 135b, cis-4-(((R)-1-(7-((cis-4-ethylcyclohexyl)oxy)-8-(trifluoromethyl)naphthalen-2-yl)ethyl)amino)cyclohexanecarboxylic acid], the half-inhibitory concentration (IC50) is no more than 250 nM.

In the case of `C[C@H](N[C@H]1CC[C@@H](C(=O)O)CC1)c1ccc2ccc(O[C@H]3CC[C@@H](C(F)(F)F)CC3)c(C(F)(F)F)c2c1` [Example 136a, cis-4-(((S)-1-(8-(trifluoromethyl)-7-((cis-4-(trifluoromethyl)cyclohexyl)oxy)naphthalen-2-yl)ethyl)amino)cyclohexanecarboxylic acid], the concentration for half-maximal inhibition (IC50) is no more than 100 nM.

Take `C[C@@H](N[C@H]1CC[C@@H](C(=O)O)CC1)c1ccc2ccc(O[C@H]3CC[C@@H](C(F)(F)F)CC3)c(C(F)(F)F)c2c1` [Example 136b, cis-4-(((R)-1-(8-(trifluoromethyl)-7-((cis-4-(trifluoromethyl)cyclohexyl)oxy)naphthalen-2-yl)ethyl)amino)cyclohexanecarboxylic acid]: the IC50 was no more than 250 nM.

In the case of `CC(N[C@H]1CC[C@@H](C(=O)O)CC1)c1ccc2ccc(O[C@H]3CC[C@@H](C)CC3)c(C(F)(F)F)c2c1` (stereo partly drawn) [Example 142, cis-4-((1-(7-((cis-4-methylcyclohexyl)oxy)-8-(trifluoromethyl)naphthalen-2-yl)ethyl)amino)cyclohexanecarboxylic acid], the half-inhibitory concentration (IC50) is no more than 100 nM.

Still in this experiment, the particulars now being: IC50, FRET substrate FS-3 2 μM, ATX 1.0 μg/mL, 30 minutes pre-incubation, 2 hours at room temperature.
Compound `CC[C@H]1CC[C@@H](Oc2ccc3ccc(C(C)N4C5CCCC4CC(C(=O)OC)C5)cc3c2C(F)(F)F)CC1` (stereo partly drawn) [Example 132, methyl 9-(1-(7-((cis-4-ethylcyclohexyl)oxy)-8-(trifluoromethyl)naphthalen-2-yl)ethyl)-9-azabicyclo[3.3.1]nonane-3-carboxylate] showed an IC50 of no more than 250 nM.

For `CC[C@H]1CC[C@@H](Oc2ccc3ccc([C@H](C)N4C5CCCC4CC(C(=O)O)C5)cc3c2C(F)(F)F)CC1` (stereo partly drawn) [Example 133a, 9-((S)-1-(7-((cis-4-ethylcyclohexyl)oxy)-8-(trifluoromethyl)naphthalen-2-yl)ethyl)-9-azabicyclo[3.3.1]nonane-3-carboxylic acid], the IC50 is no more than 100 nM.

Consider `CC[C@H]1CC[C@@H](Oc2ccc3ccc([C@@H](C)N4C5CCCC4CC(C(=O)O)C5)cc3c2C(F)(F)F)CC1` (stereo partly drawn) [Example 133b, 9-((R)-1-(7-((cis-4-ethylcyclohexyl)oxy)-8-(trifluoromethyl)naphthalen-2-yl)ethyl)-9-azabicyclo[3.3.1]nonane-3-carboxylic acid], for which the concentration for half-maximal inhibition (IC50) was no more than 250 nM.

Turning to `C[C@@H](c1ccc2ccc(O[C@H]3CC[C@@H](C(F)(F)F)CC3)c(C(F)(F)F)c2c1)N1C2CCCC1CC(C(=O)O)C2` (stereo partly drawn) [Example 137a, 9-((S)-1-(8-(trifluoromethyl)-7-((cis-4-(trifluoromethyl)cyclohexyl)oxy)naphthalen-2-yl)ethyl)-9-azabicyclo[3.3.1]nonane-3-carboxylic acid], the IC50 was no more than 100 nM.

With `C[C@H](c1ccc2ccc(O[C@H]3CC[C@@H](C(F)(F)F)CC3)c(C(F)(F)F)c2c1)N1C2CCCC1CC(C(=O)O)C2` (stereo partly drawn) [Example 137b, 9-((R)-1-(8-(trifluoromethyl)-7-((cis-4-(trifluoromethyl)cyclohexyl)oxy)naphthalen-2-yl)ethyl)-9-azabicyclo[3.3.1]nonane-3-carboxylic acid], the IC50 is no more than 100 nM.

For `C[C@H]1CC[C@@H](Oc2ccc3cc(F)c(CN4C5CCCC4CC(C(=O)O)C5)cc3c2C(F)(F)F)CC1` (stereo partly drawn) [Example 138, 9-((3-fluoro-7-((cis-4-methylcyclohexyl)oxy)-8-(trifluoromethyl)naphthalen-2-yl)methyl)-9-azabicyclo[3.3.1]nonane-3-carboxylic acid], the IC50 is no more than 250 nM.

Take `CC(c1cc2c(C(F)(F)F)c(O[C@H]3CC[C@@H](C)CC3)ccc2cc1F)N1C2CCC1CC(C(=O)O)C2` (stereo partly drawn) [Example 139, 8-(1-(3-fluoro-7-((cis-4-methylcyclohexyl)oxy)-8-(trifluoromethyl)naphthalen-2-yl)ethyl)-8-azabicyclo[3.2.1]octane-3-carboxylic acid]: the IC50 is no more than 100 nM.

Regarding `CC(c1cc2c(C(F)(F)F)c(O[C@H]3CC[C@@H](C(F)(F)F)CC3)ccc2cc1F)N1C2CCC1CC(C(=O)O)C2` (stereo partly drawn) [Example 140, 8-(1-(3-fluoro-8-(trifluoromethyl)-7-((cis-4-(trifluoromethyl)cyclohexyl)oxy)naphthalen-2-yl)ethyl)-8-azabicyclo[3.2.1]octane-3-carboxylic acid], the concentration for half-maximal inhibition (IC50) is no more than 100 nM.

`O=C(O)C1CC2CCC(C1)N2Cc1cc2c(C(F)(F)F)c(O[C@H]3CC[C@@H](C(F)(F)F)CC3)ccc2cc1F` (stereo partly drawn) [Example 141, 8-((3-fluoro-8-(trifluoromethyl)-7-((cis-4-(trifluoromethyl)cyclohexyl)oxy)naphthalen-2-yl)methyl)-8-azabicyclo[3.2.1]octane-3-carboxylic acid] gave a half-maximal inhibitory concentration (IC50) of no more than 100 nM.

One may read the IC50 as the concentration that gives 50% inhibition.
